US20180256519A1, “COMPOSITION FOR PREVENTING OR TREATING MITOCHONDRIAL DISEASES CAUSED BY IMMUNOSUPPRESSANTS, AND IMMUNE DISEASES, CONTAINING METFORMIN” (THE CATHOLIC UNIVERSITY OF KOREA INDUSTRY-ACADEMIC …, priority 2015, published 2018)

Assays:
[1] = test system: allogeneic reactive T cells; test: Allogeneic reactive T cell proliferation, mixed lymphocyte reaction ([3H]-thymidine uptake); assay type: cell-based, mouse (Balb/c, C57BL/6); details: metformin 1000 uM, rapamycin 1 nM or 100 nM; 3 days
Protocol: CD4+ T cells (2×10^5 cells/well) from normal donors (Balb/c, responder) and splenocytes (2×10^5 cells/well) with T cells removed, which were derived from irradiated recipients (syngeneic) or donors (C57BL/ 6, stimulator, allogeneic), were added to each well of a 96-well plate, followed by mixed incubation. Here, for the allogeneic reaction, the cells were treated with metformin (1000 uM) and rapamycin (1 nM or 100 nM) according to experimental conditions, followed by incubation for 3 days. On the last day of the incubation, [^3H]-thymidine was added, followed by additional incubation for 18 hours, and the [^3H]-thymidine uptake of cells was measured by the Liquid Scintillation Counter (Beckman, USA), and expressed as cpm. Statistical assay was conducted by using Graph prism (t-test, ANOVA), and values of p<0.05 were considered statistically significant.

IFN-γ = IFN-γ secretion by allogeneic reactive T cells in mixed lymphocyte reaction (ELISA); assay type: cell-based, mouse (Balb/c, C57BL/6); details: metformin 1000 μM, rapamycin 1 nM or 100 nM; 3 days
[2] = test system: LPS-stimulated splenocytes; test: Inflammatory cytokines secreted in LPS-stimulated splenocytes (ELISA); assay type: cell-based, C57BL/6 mice; details: LPS 100 ng/ml; metformin 1000 uM, rapamycin 100 nM; 3 days
Protocol: Splenocytes obtained from normal C57BL/6 mice were added into a 24-well plate (1×10^6 cells/well), and stimulated by LPS (100 ng/ml), and then treated with metformin (1000 uM) or rapamycin (100 nM) according to experimental conditions, followed by incubation for 3 days. […] Statistical analysis was conducted by using Graph prism (t-test, ANOVA), and values of p<0.05 were considered statistically significant.

[3] = test system: Splenocytes obtained from normal C57BL/6 mice; test: MTT non-specific cytotoxicity in T cell activation conditions; assay type: cell-based; details: metformin 1000 μM, rapamycin 100 nM; 3 days; anti-CD3 0.5 μg/ml
Protocol: (§1) Splenocytes obtained from normal C57BL/6 mice were added at 2×10^5 cells in the 96-well plate, and treated with metformin (1000 μM) or rapamycin (100 nM) according to experimental conditions, followed by incubation for 3 days, under anti-CD3 activation conditions (0.5 μg/ml). For MTT analysis, 3-(4,5-dimethyl-thiazol-2-yl)-2,5-diphenyltetrazolium bromide was added 4 hours before cell harvest, followed by incubation for 4 hours, and then each well was treated with DMSO, and the absorbance was measured at the wavelength of 540 nm.

IL-17 = IL-17 secretion by splenocytes in T cell activation conditions (ELISA); assay type: cell-based, C57BL/6 mice; details: metformin 1000 uM, rapamycin 100 nM; 3 days; anti-CD3 0.5 μg/ml; vs Nil
Protocol: as §1
The cells were treated with metformin (1000 uM) or rapamycin (100 nM) according to experimental conditions, followed by incubation for 3 days, and then the amount of IL-17 present in the culture liquid was measured by ELISA.

[4] = test system: LPS-stimulated splenocytes; test: Immunoglobulin (IgG) in culture liquid of LPS-stimulated splenocytes (ELISA); assay type: cell-based, mouse; details: LPS 100 ng/ml; metformin 1000 uM, rapamycin 100 nM
Protocol: Splenocytes obtained from normal C57BL/6 mice were added into a 24-well plate (1×10^6 cells/well), and stimulated by LPS (100 ng/ml), and then treated with metformin (1000 uM) or rapamycin (100 nM) according to experimental conditions, followed by incubation for 3 days. […] Statistical analysis was conducted by using Graph prism (t-test, ANOVA), and values of p<0.05 were considered statistically significant.
Thereafter, the level of IgG present in the culture liquid was measured by ELISA.

Treg cells = test: Treg cell activity in splenocytes under anti-CD3 activation (flow cytometry); assay type: cell-based, C57BL/6 mice; details: metformin 1000 μM, rapamycin 100 nM; 3 days; anti-CD3 0.5 μg/ml
Protocol: Splenocytes obtained from normal C57BL/6 mice were added at 1×10^6 cells in the 24-well plate, and treated with metformin (1000 μM) or rapamycin (100 nM) according to experimental conditions, followed by incubation for 3 days, under anti-CD3 activation conditions (0.5 μg/ml). For flow cytometry, the cells were treated with anti-CD4-percp antibody and anti-CD25-APC antibody, followed by incubation at 4[…] for 30 minutes, and then the cells were subjected to permeabilization, and then reacted with anti-Foxp3-PE. For analysis of Treg activity, the cells expressing the CD4+CD25+Foxp3+ marker were gated and analyzed. The results were expressed by a bar graph showing the proportion of Foxp3+CD25+ cells occupying in the cultured all CD4+ cells.

NIH3T3 cells [5] = test: Analysis of mitochondrial content (MitoTracker staining); assay type: cell-based; details: 72-hr incubation; rapamycin 1 nM, metformin 200 uM or 1 mM
Protocol: The mitochondria were observed by fluorescent microscopy for each experimental condition. Specifically, the MitoTracker was diluted in DMEM medium to a concentration of 100 nM, and then added on the NIH3T3 plate, followed by incubation at 37° C. for 15 minutes and washing with PBS. Thereafter, for α-tubulin staining, the cells were fixed with acetone and methanol (1:1) for 15 minutes, and then washed with PBS for 15 minutes.

NIH3T3 cells [6] = test: Analysis of mitochondrial membrane potential (JC-1 staining); assay type: cell-based; details: 72-hr incubation; rapamycin 1 nM, metformin 200 uM or 1 mM
Protocol: For JC-1 staining, the cells were incubated in JC-1, which had been diluted in DMEM to a final concentration of 100 nM, at 37 °C for 15 minutes, and then the exchange into new DMEM medium was conducted, followed by observation by fluorescent microscopy.

[7] = test system: Synovial cells isolated from patients with rheumatoid arthritis (RA); test: Measurement of mitochondrial respiration (oxygen consumption rate); assay type: cell-based, human; details: rapamycin 100 nM
Protocol: The present inventors examined the effect of metformin on rapamycin-induced mitochondrial respiration deterioration. The cells were treated with rapamycin (100 nM) alone or co-treated with rapamycin (100 nM) and metformin (1 mM), and then the mitochondrial respiratory rate was examined through the measurement of the oxygen consumption rate. Oligomycin and FCCP treatment conditions were the same.

Sprague-Dawley rats = test: Rapamycin-induced diabetic symptoms and metformin co-administration in rats (body weight, urine volume, IPGTT, ITT); assay type: in vivo, rat
Protocol: As experimental animals, Sprague-Dawley rats with 200-220 grams were used. The animals were fed with a 0.05% low-salt diet, and the experiment was conducted for a total of 6 weeks while drugs were administered according to experimental conditions (FIG. 5). […] Rapamycin dissolved in olive oil was subcutaneously injected into the rapamycin administered alone group (Rapamycin) and the co-administered group (Rapa+Met) at a dose of 0.3 mg/kg of body weight every day for six weeks. Metformin was orally administered at a dose of 250 mg/kg of body weight every day for 2.5 weeks from the 3.5 weeks of rapamycin administration. Distilled water (DW, 3 mL/kg) instead of metformin was orally administered into the rapamycin administered alone group and the control group. The body weight and 24-hr urine volume of the control and experimental groups were measured six weeks after the start of the experiment FIGS. 6A and 6B. The urine volume was measured in the metabolic cage. The animals of each group were tested for the intraperitoneal glucose tolerance test (IPGTT) and the insulin tolerance test (ITT), and the change in blood glucose level over time was observed FIGS. 7A, 7B, 8A and 8B). The intraperitoneal glucose tolerance test (IPGTT) was performed by intraperitoneal administration of 1.5 g/kg of body weight of glucose after fasting. The insulin resistance test was carried out such that the blood glucose level was measured at 30-min intervals after subcutaneous injection of insulin at 0.8 U/kg of body weight following 5-hr fasting. The quantitative index (area under the curve of glucose, AUCg) was derived using a graph of blood glucose level change per hour, and was expressed as a bar graph. Data were expressed as mean value±standard deviation, and statistical significance was determined by student's t-test.

[8] = test system: collagen-induced arthritis mouse models; test: Glucose tolerance test and insulin tolerance test in arthritis animal models; assay type: in vivo; details: arthritis mice after 12 weeks, rapamycin 1 mg/kg
Protocol: The intraperitoneal glucose tolerance test was performed by intraperitoneal injection of glucose at 1 g/kg of body weight after fasting for 12 hours. The insulin tolerance test was performed at 30 minutes interval after the subcutaneous injection of […] at 1 U/kg of body weight.

[9] = rapamycin 0.3 mg/kg s.c. daily 6 weeks, metformin 250 mg/kg oral daily from 3.5 weeks, vs control group (VH)

SMILES | allogeneic reactive T cell proliferation ([3H]-thymidine uptake, cpm) [1] | secretion of IFN-γ (IFN-γ) | concentration of IL-6 present in the culture liquid [2] | concentration of TNF-α present in the culture liquid [2] | non-specific cytotoxicity (MTT) [3] | amount of IL-17 present in the culture liquid (IL-17) | concentration of immunoglobulin (IgG) present in the culture liquid [4] | Treg activity (proportion of Foxp3+CD25+ cells in CD4+ cells) (Treg cells) | mitochondrial content (MitoTracker) (NIH3T3 cells [5]) | mitochondrial membrane potential (JC-1 staining) (NIH3T3 cells [6]) | increase in mitochondrial respiratory rate by FCCP ([7]; FCCP 3 uM, metformin 1 mM) | mitochondrial respiration capacity (oxygen consumption rate) ([7]; before the treatment with oligomycin, vs control group) | blood glucose level in intraperitoneal glucose tolerance test (IPGTT) (Sprague-Dawley rats; glucose 1.5 g/kg i.p. after fasting, rapamycin 0.3 mg/kg, metformin 250 mg/kg) | blood glucose level in insulin tolerance test (ITT) (Sprague-Dawley rats; insulin 0.8 U/kg s.c. after 5-hr fasting, rapamycin 0.3 mg/kg, metformin 250 mg/kg) | 24-hr urine volume (Sprague-Dawley rats; [9]) | body weight (Sprague-Dawley rats; [9]) | blood glucose level in intraperitoneal glucose tolerance test ([8]; glucose 1 g/kg i.p. after 12 h fasting, metformin 50 mg/kg) | glucose level in insulin tolerance test, start point of measurement [8] | blood glucose level in insulin tolerance test, after the start point ([8]; metformin 50 mg/kg, vs control group (Vehicle))
CN(C)C(=N)NC(=N)N [metformin] | reduced the cpm values | reduced | reduced | reduced | no non-specific cytotoxicity | reduced | reduced | increased |  |  |  |  |  |  |  |  |  |  | 
CO[C@H]1C[C@@H]2CC[C@@H](C)[C@@](O)(O2)C(=O)C(=O)N2CCCC[C@H]2C(=O)O[C@H]([C@H](C)C[C@@H]2CC[C@@H](O)[C@H](OC)C2)CC(=O)[C@H](C)/C=C(\C)[C@@H](O)[C@@H](OC)C(=O)[C@H](C)C[C@H](C)/C=C/C=C/C=C/1C [rapamycin] | reduced the cpm values | reduced | reduced | reduced | no non-specific cytotoxicity | reduced | reduced | increased | reduced | not normally maintained | remarkably low | reduced respiration capacity compared with the control group | highest blood glucose level among the three groups | highest blood glucose level among the three groups | significantly increased | significant reductions | the highest | the highest | maintained at similar levels
